Results taken from the supplement of paper PMC10790783.

system: MRC5-hT fibroblasts expressing HCMV UL38 (glucose-free medium); assay: rescue of cell number (AUC of dose-response) relative to untreated glucose-free control; higher = stronger protection from glucose-starvation-induced cell death; conditions: glucose: 0 (glucose-free DMEM); 96 h; dose range 0.001-20, 10-point curve µM
Description: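 MRC5-hT fibroblasts stably expressing HCMV UL38 were seeded in 384-well plates, serum-starved for 24 h, switched to glucose-free DMEM, and pin-transferred with a metabolism-focused compound library as 10-point dose curves (1 nM to 20 µM; n=2). Nuclei were counted by Hoechst imaging 96 h after glucose withdrawal.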

Compound	rescue of cell number
O=C(O)C(=O)CBr [Bromopyruvic_acid]	134%
O=c1[nH]cc(F)c(=O)[nH]1 [5_Fluorouracil]	-15.2%
OC[C@H]1O[C@@H](c2ccc(Cl)c(Cc3ccc(O[C@H]4CCOC4)cc3)c2)[C@H](O)[C@@H](O)[C@@H]1O [Empagliflozin]	86.7%
CCCCC[C@H](CC(=O)NO)C(=O)N[C@H](C(=O)N1CCC[C@H]1CO)C(C)C [Actinonin]	-1.46%
O=C(N[C@H](CO)[C@H](O)c1ccc([N+](=O)[O-])cc1)C(Cl)Cl [Chloramphenicol]	-10.7%
CC[n+]1c(-c2ccccc2)c2cc(N)ccc2c2ccc(N)cc21 [Ethidium_Bromide]	97.6%
CC(C)c1nc(N(C)S(C)(=O)=O)nc(-c2ccc(F)cc2)c1/C=C/[C@@H](O)C[C@@H](O)CC(=O)O [Rosuvastatin]	45.3%
Cc1cn[nH]c1 [Fomepizole]	81.1%
O=c1cnn([C@@H]2O[C@H](CO)[C@@H](O)[C@H]2O)c(=O)[nH]1 [6_Azauridine]	-34.1%
O=C(Cc1ccccc1)Nc1nnc(CCSCCc2nnc(NC(=O)Cc3ccccc3)s2)s1 [BPTES]	-24.3%
O=c1c2ccccc2[se]n1-c1ccccc1 [Ebselen]	-18.8%
NC(=O)c1ccc(N)nc1 [6_Aminonicotinamide]	32.1%
C=C(C)[C@@H]1CC[C@]2(C(=O)O)CC[C@]3(C)[C@H](CC[C@@H]4[C@@]5(C)CC[C@H](O)C(C)(C)[C@@H]5CC[C@]43C)[C@@H]12 [Betulinic_acid]	17.8%
COc1cc(O)c(CC=C(C)C)c(O)c1C(=O)/C=C/c1ccc(O)cc1 [Xanthohumol]	15.1%
CCCCCCCC/C=C\CCCCCCCC(=O)NCCO [Oleylethanolamide]	-13.2%
Cc1ccc(-c2c(-c3nn(C)c4ncnc(N5CC[C@H](N6CCCCC6)C5)c34)cnn2C)cc1	45.6%
N[C@H](C(=O)O)[C@@H]1CC(Cl)=NO1 [Acivicin]	-32.4%

Compound	rescue of cell number
N#CSc1cc(SC#N)c(N)nc1N [PR-619]	-9.68%
Nc1nc(Cl)nc2c1ncn2[C@H]1C[C@H](O)[C@@H](CO)O1 [Cladribine]	-12.9%
Nc1cccc(S(=O)(=O)N2CCCN(S(=O)(=O)c3ccc4c(c3)OCCO4)CC2)c1 [DASA-58]	68%
Nc1ccn([C@@H]2C=C(CO)[C@@H](O)[C@H]2O)c(=O)n1 [Cyclopentenyl_cytosine]	84.2%
CN(Cc1ccc(C(C)(C)C)cc1)Cc1cccc2ccccc12 [Butenafine]	14.4%
CCC(C)SSc1ncc[nH]1 (centres undefined) [PX_12]	-1.42%
O=C(CCCCCCCn1cc(-c2cccnc2)nn1)Nc1ccccc1-c1ccccc1 [GPP_78]	20.3%
Cc1nc(=O)c2cc(CN(C)c3ccc(C(=O)N[C@@H](CCC(=O)O)C(=O)O)s3)ccc2[nH]1 [Raltitrexed]	-26.7%
Cc1c(O)c(=O)ccn1C [Deferiprone]	25.4%
CCCCCCCCCCC[C@@H](C[C@@H]1OC(=O)[C@H]1CCCCCC)OC(=O)[C@H](CC(C)C)NC=O [Orlistat]	-10.4%
O=C(O)CSc1nnc(Br)n1-c1ccc(C2CC2)c2ccccc12 [Lesinurad]	-28.1%
OC(c1cc(C(F)(F)F)nc2c(C(F)(F)F)cccc12)C1CCCCN1 (centres undefined) [Mefloquine]	-12%
CCCCCC[C@H]1C(=O)O[C@H](C)[C@H](NC(=O)c2cccc(NC=O)c2O)C(=O)O[C@@H](C)[C@@H]1OC(=O)CC(C)C [Antimycin_A]	-7.1%
CNC(=O)c1ccc2cc([C@@]3(O)CCn4cncc43)ccc2c1 [TAK_700]	-25.3%
N=C(N)NC(=N)NCCc1ccccc1 [Phenformin]	-11.3%
COc1ccc(N(C(=O)CCl)C(C(=O)NCCc2ccccc2)c2cccs2)cc1Cl (centres undefined) [ML-162]	15.3%
CCOC(=O)c1ccc(-c2ccc(OC(=O)N(C)Cc3cccc(-c4ccncc4)c3)cc2)cc1 [WWL_113]	-23.8%
